According to PubChem BioAssay AID2384 (Southern Research Specialized Biocontainment Screening …, 2010):

System: S. typhi GFP reporter counter-screen, fluorescence, 4 h
Test: S. typhi counter-screen signal inhibition – fluorescence, 4 h, counter-screen for PhoP regulon inhibitor project, dose response (AID 2384)

SMILES	IC50 [µM]
C#CCOCCOCCOCCNc1nc(N2CCN(C(=O)CCCCCCCCCCNC(=O)[C@H](CCCCN)n3cc(C)nn3)CC2)nc(N2CCN(C(=O)CCCCCCCCCCNC(=O)[C@@H]([C@H](C)CC)n3cc(CCCCCN)nn3)CC2)n1	20.4
NCCCCCc1nnc(SCc2ccc(Cl)cc2Cl)o1	98.3
N/C(=N\OS(=O)(=O)c1ccc(Cl)cc1)c1cccnc1	12.4
CN1CCC(OC(=O)c2ccc(Br)cc2)CC1	18.2
COc1ccc(CNCCC(c2ccccc2)c2ccc3c(c2)OCO3)cc1 (configuration not stated)	73.4
Cc1cc([N+](=O)[O-])cc(/C=N\NC(=O)C2COc3ccccc3O2)c1O (configuration not stated)	30.3
Cn1c(-c2ccc3c(c2)OCO3)cnc1NCc1ccc(Cl)cc1	76.3
O=C(C[n+]1ccccc1)c1ccc(-c2ccccc2)cc1	123
COc1cccc(NC2=NC3(CCCCC3)N=C(N)N2)c1	148
COC(=O)C1C(O)C(C)C(O)C(C)/C=C\C=C(/C)C(=O)Nc2c(C)c(OC(C)=O)c3c(c2O)C(=O)C(C)=C2OCOC(=C23)/C(C)=C/C(C)(O)C(O)C(C)C1O (configuration not stated)	15.2
c1ccc(CN2CCN(c3nc(NCc4ccco4)c4ccccc4n3)CC2)cc1	64.6
NC(N)=N/N=C/c1ccc(OCc2ccccc2Cl)cc1	39.5
Brc1ccc2c(c1)C(OC1CN3CCC1CC3)c1ccccc1CS2 (configuration not stated)	31.8
CC(NCc1ccc(-c2ccccc2)cc1)C(O)c1ccccc1 (configuration not stated)	39
CCCCCCCCCCCCCCCC[n+]1ccc(/C=N/O)cc1	36.9
CCOC(=O)c1ccc(CNCc2ccc(Br)cc2)cc1	45.4
O=C(NCCCN1CCN(c2ccc(F)cc2)CC1)Nc1ccc([N+](=O)[O-])cc1	74.7
CCCCCCCCCC[N+](C)(C)CC/C=C1/c2ccccc2Sc2ccc(Cl)cc21	14
CN1CCN(C(c2ccc(Br)cc2)c2cc(Cl)c3cccnc3c2O)CC1 (configuration not stated)	35.4
COc1ccc(/C=N/Nc2cc(C)nc3ccccc23)cc1	29.2
CCN1CCN(C(=O)c2cc3ccc(OC)cc3[nH]2)CC1	34.1
CNCC[C@H](Oc1cccc2ccccc12)c1cccs1	48.1
COc1cc([N+](=O)[O-])cc(/C=N/NC(=O)CSc2ccccn2)c1O	93.2
O=C1c2ccccc2NC(c2ccc(-c3ccc(Br)cc3)o2)N1O (configuration not stated)	25.5
C(=N\Nc1ccccn1)/c1cccnc1	30.1
Cc1ccc(C(C[N+](=O)[O-])n2nc(C)cc2C)cc1 (configuration not stated)	27.1

SMILES	IC50 [µM]
O=[N+]([O-])c1cccc(NNS(=O)(=O)c2ccccc2F)c1	18.5
COc1cccc(F)c1C(C[N+](=O)[O-])c1c(N)n(C)c(=O)n(C)c1=O (configuration not stated)	89.2
CN(C)C1C(=O)C(C(N)=O)=C(O)C2(O)C(=O)C3=C(O)c4c(O)cccc4C(C)(O)C3C(O)C12 (configuration not stated)	0.83
O=C(CCN1CCN(c2ccccc2)CC1)c1ccc(Br)cc1	70.1
COc1ccc(/C=C/c2cc(-c3ccc(C)cc3)o[n+]2C)cc1	42.7
CCc1cccc2c1Sc1ccccc1CC2N1CCNCC1 (configuration not stated)	39.3
Cn1ncnc2c(=O)n(C)c(=O)nc1-2	2.53
Clc1ccc2c(c1)C(N1CCNCC1)Cc1ccccc1S2 (configuration not stated)	35.1
CCn1cc(C(=O)O)c(=O)c2cc(F)c(N3CCN(S(=O)(=O)c4ccc(NC(C)=O)cc4)CC3)cc21	131
C1=C(CCNCc2ccccc2)CCCC1	16.8
Clc1c(OCCCn2ccnc2)ccc2ccccc12	76.6
CCn1cc(C(=O)NCCO)c(=O)c2cc(F)c(N3CCN(C)CC3)cc21	27.7
COc1cccc(Nc2nc(NCCO)c3ccccc3n2)c1	57.8
CN(C)CC/C=C1\c2ccccc2Sc2cc(F)c(Cl)cc21	34.8
CC[C@H]1OC(=O)[C@H](C)[C@@H](O[C@H]2C[C@@](C)(OC)[C@@H](O)[C@H](C)O2)[C@H](C)[C@@H](O[C@@H]2O[C@H](C)C[C@H](N(C)C)[C@H]2O)[C@](C)(OC)C[C@@H](C)C(=O)[C@H](C)[C@@H](O)[C@]1(C)O	29.7
O=C1OCC(CO)(CO)N=C1NNc1ccc(Cl)c(Cl)c1	144
CCCCn1c(NS(=O)(=O)c2ccc(C)cc2)c(S(=O)(=O)c2ccccc2)c2nc3ccccc3nc21	9.71
Clc1ccc(/C=C/c2ncc[nH]2)c(Cl)c1	32.5
CN(C)CC/C=C1\c2ccc(F)cc2Sc2cc(F)c(Cl)cc21	19.5
Cc1ccc(NC(=O)CN(C)C2CCCCC2)cc1Br	41.6
Cc1ccc(C(=O)NNC(=S)NC(=O)COc2ccccc2)cc1	63.9
CC1CCC(C(C)C)C(OC(=O)Cn2c(-c3ccc(Br)cc3)[n+](C)c3ccccc32)C1 (configuration not stated)	73.6
O=C(Oc1c(Cl)cc(Cl)c2cccnc12)c1cccc([N+](=O)[O-])c1	9.26
CCN1/C(=C/C=C/C=C/c2sc3ccccc3[n+]2CC)Sc2ccccc21	9.68
CCn1ncc(/C=N\NC(=O)c2csc3ccccc23)c1C	124
CN(C)CCCOC(=O)c1sc2ccccc2c1Cl	68.6

SMILES	IC50 [µM]
CCOC(=O)Cn1c(=N)n(CCOc2ccc3ccccc3c2)c2ccccc21	37.2
Cc1cc(OCCCCCNCCO)cc(C)c1Cl	107
Cc1cc(C)n2nc(S(=O)(=O)Nc3c(Cl)cccc3Cl)nc2n1	49.7
Fc1ccc(Nc2nnc(C(F)(F)F)s2)cc1Cl	37.8
Cc1ccc(-c2c[n+](CC(=O)Nc3nc(-c4ccccc4)cs3)c3n2CCC3)cc1	21.2
CN(Cc1ccccc1O)CC1CCCN(CCc2ccc(Cl)cc2)C1 (configuration not stated)	16.9
C#CCOCCOCCOCCNc1nc(N2CCN(C(=O)[C@H](Cc3ccc(O)cc3)n3cc([C@@H](N)CC(C)C)nn3)CC2)nc(N2CCN(C(=O)[C@H](Cc3ccc(O)cc3)n3cc([C@@H](N)CC(C)C)nn3)CC2)n1	80
O=C(N=Nc1c(O)[nH]c2ccccc12)c1cc(-c2cccs2)[nH]n1	81.4
NC1=NC[C@H](c2ccccc2)N1CCCCC1CCCCC1	28.9
O=C(Cn1nc(C(F)F)cc1C(F)F)NNC(=S)Nc1ccc([N+](=O)[O-])cc1	69.1
CCCCCC[N+](C)(C)CC/C=C1/c2ccccc2Sc2ccc(Cl)cc21	26.2
CC1(C)N=C(N)N=C(N)N1c1ccc(Oc2ccc(Cl)cc2)c(Cl)c1	36.3
CN1CCCN(C(c2ccccc2)c2ccc(Cl)cc2)CC1 (configuration not stated)	37.7
O=C(N/N=C/c1cc(Cl)cc(Cl)c1O)c1ccncc1	33.7
CCCCCCCCCCOC(=O)C[N+](C)(C)CC1CCCCC1O (configuration not stated)	37.6
Fc1ccc(Nc2c3c(nc4ccccc24)CCC3)cc1	47
CCCN1CCC(NCc2cn(C)nc2-c2ccc(Oc3ccccc3)cc2)CC1	85.4
Oc1ccc(C[C@@H]2CNCCN2CCC23CC4CC(CC(C4)C2)C3)cc1	40.6
CC1(CC(=O)N/N=C/c2cc([N+](=O)[O-])c(O)cc2O)OCCO1	74
Cc1nonc1C(=O)N/N=C/c1ccc(O)cc1O	20.3
Oc1c(CN2CCCCC2)cc(Br)c2cccnc12	15.7
O=C(N/N=C/c1c[nH]c2ccccc12)c1ccc(Cl)cc1	91.6
COc1ccccc1C(C[N+](=O)[O-])c1c(N)n(C)c(=O)n(C)c1=O (configuration not stated)	38.5
CN1CCN(c2cc3c(cc2F)c(=O)c(C(=O)O)cn3CCF)CC1	1.06
NC1CCN(c2c(F)cc3c(=O)c(C(=O)O)cn(C4CC4)c3c2Cl)C1 (configuration not stated)	< 0.55
